Where two headings read alike, the source gives them in different places.
Assays:
Assay type in all cases: in vivo
[1] = test system: common (oilseed) sunflower (Helianthus annuus); experiment: Test C pre-/postemergence: sunflower; conditions: Preemergence
Description: (§1) Seeds of plant species selected from blackgrass (Alopecurus myosuroides), bromegrass, downy (downy bromegrass, Bromus tectorum), foxtail, green (green foxtail, Setaria viridis), ryegrass, Italian (Italian ryegrass, Lolium multiflorum), winter wheat (Triticum aestivum), wild oat (Avena fatua), galium (catchweed bedstraw, Galium aparine), bermudagrass (Cynodon dactylon), surinam grass (Brachiaria decumbens), cocklebur (common cocklebur, Xanthium strumarium), corn (Zea mays), large crabgrass (Digitaria sanguinalis), woolly cupgrass (Eriochloa villosa), foxtail, giant (giant foxtail, Setaria faberii), goosegrass (Eleusine indica), johnsongrass (Sorghum halepense), kochia (Kochia scoparia), lambsquarters (Chenopodium album), morningglory (Ipomoea coccinea), nightshade (eastern black nightshade, Solanum ptycanthum), nutsedge, yellow (yellow nutsedge, Cyperus esculentus), pigweed (Amaranthus retroflexus), ragweed (common ragweed, Ambrosia elation), soybean (Glycine max), common (oilseed) sunflower (Helianthus annuus), Russian thistle (Salsola kali) and velvetleaf (Abutilon theophrasti) were planted into a blend of loam soil and sand and treated preemergence with test chemicals formulated in a non-phytotoxic solvent mixture which included a surfactant.
(§2) At the same time, plants selected from these crop and weed species and also barley (winter barley, Hordeum vulgare), canarygrass (Phalaris minor), chickweed (common chickweed, Stellaria media) windgrass (Apera spica-venti) and deadnettle (henbit deadnettle, Lamium amplexicaule) were planted in pots containing Redi-Earth® planting medium (Scotts Company, 14111 Scottslawn Road, Marysville, Ohio 43041) comprising spaghnum peat moss, vermiculite, wetting agent and starter nutrients and treated with postemergence applications of test chemicals formulated in the same manner. Plants ranged in height from 2 to 18 cm (1- to 4-leaf stage) for postemergence treatments.
(§3) Treated plants and controls were maintained in a greenhouse for 13 to 15 days, after which time all species were compared to controls and visually evaluated. Plant response ratings, summarized in Table C, are based on a scale of 0 to 100 where 0 is no effect and 100 is complete control. A dash (-) response means no test result.

[2] = test system: crabgrass, large (large crabgrass, Digitaria sanguinalis); experiment: Test A pre-/postemergence: crabgrass, large; conditions: for pest or weed control at 125 g/ha / pest or weed control at 500 g/ha: Digitaria sanguinalis, 240 h
How it was run: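 Each species received preemergence soil-directed spraying and, at the same time, postemergence treatment of seedlings 2–10 cm tall. Formulation: non-phytotoxic solvent mixture including surfactant. Response assessed visually about ten days on, relative to untreated controls, 0–100 scale.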

soybean (Glycine max) = experiment: Test C pre-/postemergence: soybean
Description: as §1, §2, §3

[3] = test system: barley, winter (winter barley, Hordeum vulgare); experiment: Test D pre-/postemergence: barley, winter; conditions: Postemergence
How it was run: (§4)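 Pre- and postemergence herbicide screen. Soil for pre: silt loam; post medium: peat moss, vermiculite, wetting agent, starter nutrients. Plant stage at post: 1- to 4-leaf. Readout: visual % control, 14–21 days.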

[4] = test system: ducksalad (Heteranthera limosa); experiment: Test B flooded paddy: ducksalad; conditions: Flood, applied to paddy water at 2-leaf stage, visually evaluated after 13 to 15 days
How it was run: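 Visual ratings on a 0–100 scale, where 0 means no effect and 100 means complete control, were assigned by comparison with controls 13 to 15 days after treatment. Compounds went into paddy water over 2-leaf plants flooded to 3 cm.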

[5] = test system: barley, spring (spring barley, Hordeum vulgare); experiment: Test D pre-/postemergence: barley, spring; conditions: Postemergence
How it was run: as §4

[6] = 125 g ai/ha, scale 0 to 100, 0 no effect, 100 complete control
[7] = Postemergence, 31 g ai/ha, scale 0 to 100 (0 no effect, 100 complete control)
[8] = Postemergence, 62 g ai/ha, scale 0 to 100 (0 no effect, 100 complete control)
[9] = Postemergence, 125 g ai/ha, scale 0 to 100, 0 no effect, 100 complete control
[10] = Postemergence, 250 g ai/ha, scale 0 to 100
[11] = Preemergence, 62 g ai/ha, scale of 0 to 100, 0 is no effect, 100 is complete control
[12] = Preemergence, 125 g ai/ha, scale 0 to 100, 0 no effect, 100 complete control
[13] = Preemergence, 250 g ai/ha, scale 0 to 100, 0 no effect, 100 complete control
[14] = Postemergence, 125 g ai/ha, 0 to 100 scale, 0 is no effect, 100 is complete control
[15] = Preemergence, 125 g ai/ha, 0 to 100 scale where 0 is no effect and 100 is complete control
[16] = Preemergence, 500 g ai/ha, 0 to 100 scale (0 no effect, 100 complete control)
[17] = 31 g ai/ha, scale 0 to 100 (0 no effect, 100 complete control)
[18] = 62 g ai/ha, scale 0 to 100 (0 no effect, 100 complete control)
[19] = 250 g ai/ha, scale 0 to 100 (0 no effect, 100 complete control)
[20] = Postemergence, 500 g ai/ha, 0 to 100 scale, 0 is no effect, 100 is complete control
[21] = Preemergence, 31 g ai/ha, scale 0 (no effect) to 100 (complete control)

Structure (SMILES): Cc1nn(-c2ccc(C(F)(F)F)cc2)nc1Cc1ccnc(C(F)(F)F)c1 [Compound 47, 4-[[5-methyl-2-[4-(trifluoromethyl)phenyl]-2H-1,2,3-triazol-4-yl]methyl]-2-(trifluoromethyl)pyridine]
- Plant response rating, Sunflower ([1]; 31 g ai/ha, scale of 0 to 100, 0 is no effect, 100 is complete control): 0
- Plant response rating, Sunflower ([1]; 62 g ai/ha, scale of 0 to 100, 0 is no effect, 100 is complete control): 0
- Plant response rating, Sunflower [1, 6]: 0
- Plant response rating, Sunflower ([1]; 250 g ai/ha, scale 0 to 100, 0 no effect, 100 complete control): 10
- pest or weed control at 125 g/ha ([2]; post-emergence, Postemergence, 125 g ai/ha, 0 to 100 scale, 0 is no effect, 100 is complete control, read-out: Crabgrass, Large plant response rating): 80%
- pest or weed control at 500 g/ha ([2]; post-emergence, Postemergence, 500 g ai/ha, visual rating on 0 to 100 scale (0 no effect, 100 complete control), approximately ten days, read-out: Crabgrass, Large plant response rating): 90%
- pest or weed control at 125 g/ha ([2]; pre-emergence, Preemergence, 125 g ai/ha, 0 to 100 scale (0 no effect, 100 complete control), read-out: Plant response rating, Crabgrass, Large): 100%
- pest or weed control at 500 g/ha ([2]; pre-emergence, Preemergence, 500 g ai/ha, 0 to 100 scale, 0 is no effect, 100 is complete control, read-out: Plant response rating, Crabgrass, Large): 100%
- Plant response rating, Soybean (soybean (Glycine max); [7]): 40
- Plant response rating, Soybean (soybean (Glycine max); [8]): 70
- Plant response rating, Soybean (soybean (Glycine max); [9]): 75
- Plant response rating, Soybean (soybean (Glycine max); [10]): 75
- Plant response rating, Soybean (soybean (Glycine max); Preemergence, 31 g ai/ha, scale of 0 to 100, 0 is no effect, 100 is complete control): 0
- Plant response rating, Soybean (soybean (Glycine max); [11]): 0
- Plant response rating, Soybean (soybean (Glycine max); [12]): 5
- Plant response rating, Soybean (soybean (Glycine max); [13]): 35

Structure (SMILES): Cc1nn(-c2ccnc(C(F)(F)F)c2)nc1Cc1ccnc(C(F)(F)F)c1 [Compound 137]
- Crabgrass, Large plant response rating [2, 14]: 90
- Crabgrass, Large plant response rating ([2]; Postemergence, 500 g ai/ha, visual rating on 0 to 100 scale (0 no effect, 100 complete control), approximately ten days): 90
- Plant response rating, Crabgrass, Large [2, 15]: 90
- Plant response rating, Crabgrass, Large [2, 16]: 90
- Plant response rating: Barley, Winter [3, 17]: 5
- Plant response rating: Barley, Winter [3, 18]: 5
- Plant response rating: Barley, Winter [3, 6]: 1
- Plant response rating: Barley, Winter [3, 19]: 10
- Plant response rating, Barley, Winter ([3]; 16 g ai/ha, scale 0 to 100): 0
- Plant response rating, Ducksalad (0 to 100 scale, 0 is no effect, 100 is complete control) ([4]; 250 g ai/ha): 50
- Plant response rating, Soybean (soybean (Glycine max); [7]): 40
- Plant response rating, Soybean (soybean (Glycine max); [8]): 55
- Plant response rating, Soybean (soybean (Glycine max); [9]): 55
- Plant response rating, Soybean (soybean (Glycine max); [10]): 60
- Plant response rating: Barley, Spring [5, 17]: 15
- Plant response rating: Barley, Spring [5, 18]: 25
- Plant response rating: Barley, Spring [5, 6]: 30
- Plant response rating: Barley, Spring [5, 19]: 40
- Plant response rating, Barley, Spring ([5]; 16 g ai/ha, scale 0 to 100): 10

Structure (SMILES): CCc1nn(-c2ccc(F)cc2)nc1Oc1ccnc(C(F)(F)F)c1 [Compound 166]
- Plant response rating, Crabgrass, Large [2, 14]: 90
- Crabgrass, Large plant response rating [2, 20]: 90
- Plant response rating, Crabgrass, Large [2, 15]: 100
- Plant response rating, Crabgrass, Large [2, 16]: 100
- Plant response rating, Ducksalad (0 to 100 scale, 0 is no effect, 100 is complete control) ([4]; 125 g ai/ha): 70
- Plant response rating, Soybean (soybean (Glycine max); [7]): 35
- Plant response rating, Soybean (soybean (Glycine max); [8]): 35
- Plant response rating, Soybean (soybean (Glycine max); [9]): 35
- Plant response rating, Soybean (soybean (Glycine max); [10]): 35
- Plant response rating, Soybean (soybean (Glycine max); [21]): 5
- Plant response rating, Soybean (soybean (Glycine max); [11]): 5
- Plant response rating, Soybean (soybean (Glycine max); [12]): 20
- Plant response rating, Soybean (soybean (Glycine max); [13]): 35

Structure (SMILES): CCCc1nn(-c2ccc(C(F)(F)F)c(F)c2)nc1Oc1ccnc(C(F)(F)F)c1 [Compound 185]
- Plant response rating, Crabgrass, Large [2, 14]: 90
- Crabgrass, Large plant response rating [2, 20]: 90
- Plant response rating, Crabgrass, Large [2, 15]: 100
- Plant response rating, Crabgrass, Large [2, 16]: 100
- Plant response rating, Ducksalad (0 to 100 scale, 0 is no effect, 100 is complete control) ([4]; 250 g ai/ha): 65
- Plant response rating, Soybean (soybean (Glycine max); [7]): 40
- Plant response rating, Soybean (soybean (Glycine max); [8]): 45
- Plant response rating, Soybean (soybean (Glycine max); [9]): 45
- Plant response rating, Soybean (soybean (Glycine max); Postemergence, 250 g ai/ha, scale 0 to 100 (0 no effect, 100 complete control)): 55
- Plant response rating, Soybean (soybean (Glycine max); [21]): 5
- Plant response rating, Soybean (soybean (Glycine max); [11]): 10
- Plant response rating, Soybean (soybean (Glycine max); [12]): 40
- Plant response rating, Soybean (soybean (Glycine max); [13]): 40

Structure (SMILES): CCOc1nn(-c2ccc(Br)cc2)nc1Cc1ccnc(C(F)(F)F)c1 [Compound 189]
- Plant response rating, Crabgrass, Large [2, 14]: 80
- Crabgrass, Large plant response rating [2, 20]: 90
- Plant response rating, Crabgrass, Large [2, 15]: 100
- Plant response rating, Crabgrass, Large [2, 16]: 100
- Plant response rating, Ducksalad (0 to 100 scale, 0 is no effect, 100 is complete control) ([4]; 125 g ai/ha): 20
- Plant response rating, Soybean (soybean (Glycine max); Preemergence, 16 g ai/ha, scale 0 (no effect) to 100 (complete control)): 5
- Plant response rating, Soybean (soybean (Glycine max); [21]): 5
- Plant response rating, Soybean (soybean (Glycine max); [11]): 15
- Plant response rating, Soybean (soybean (Glycine max); [12]): 25

— US9302999B2, “Substituted triazoles as herbicides” (E. I. DU PONT DE NEMOURS AND COMPANY, priority 2012, dated 2016)
